Measured values taken from BigSolDB 2.1.

| SMILES | solubility (mole fraction) (in ethanol, 288.15 K) | solubility (mole fraction) (in ethanol, 293.15 K) | solubility (mole fraction) (in ethanol, 298.15 K) | solubility (mole fraction) (in ethanol, 303.15 K) | solubility (mole fraction) (in ethanol, 308.15 K) | solubility (mole fraction) (in water, 288.15 K) | solubility (mole fraction) (in water, 293.15 K) | solubility (mole fraction) (in water, 298.15 K) | solubility (mole fraction) (in water, 303.15 K) | solubility (mole fraction) (in water, 308.15 K) |
| --- | --- | --- | --- | --- | --- | --- | --- | --- | --- | --- |
| N[C@@H](Cc1c[nH]c2ccccc12)C(=O)O | 0.000142 | 0.000178 | 0.000209 | 0.000246 | 0.000284 | 0.00116 | 0.00119 | 0.00122 | 0.00125 | 0.00128 |
| N[C@@H](Cc1cnc[nH]1)C(=O)O | 1.6e-05 | 2e-05 | 2.8e-05 | 3.1e-05 | 3.9e-05 | 0.00379 | 0.00418 | 0.0046 | 0.00515 | 0.0057 |
